Read-outs that look alike come from different tables or passages of the source.
Legend:
[1] = test system: B/Victoria-lineage viruses; format: cell-based
[2] = test system: neuraminidase (NA) of B/Victoria-lineage viruses; format: biochemical, influenza B/Victoria-lineage virus
[3] = test system: neuraminidase (NA) of A(H3N2) viruses; conditions: cited from earlier work
[4] = test system: neuraminidase (NA) of B/Victoria-lineage viruses; conditions: cited from earlier work

SMILES | EC50 fold-change compared to reference median EC50 values [1] | NAI inhibition phenotype (NI/RI/HRI) [2] | NAI inhibition phenotype (NI/RI/HRI) [3] | NAI inhibition phenotype (NI/RI/HRI) [4]
COC(=O)OCOc1c2n(ccc1=O)N([C@@H]1c3ccccc3SCc3c1ccc(F)c3F)[C@@H]1COCCN1C2=O [Baloxavir, baloxavir marboxil] | 3.09–7.93 fold | – | – | –
CCOC(=O)C1=C[C@@H](OC(CC)CC)[C@H](NC(C)=O)[C@@H](N)C1 [Oseltamivir, oseltamivir] | – | RI (key: normal inhibition (NI) is a <5-fold increase in the NAI IC50; RI is a 5- to 50-fold increase; HRI is a >50-fold increase) | – | –
CC(=O)N[C@H]1[C@H]([C@H](O)[C@H](O)CO)OC(C(=O)O)=C[C@@H]1N=C(N)N [Zanamivir, zanamivir] | – | RI (key: normal inhibition (NI) is a <5-fold increase in the NAI IC50; RI is a 5- to 50-fold increase; HRI is a >50-fold increase) | NI/RI | NI/RI

Reference: PMC12391581 (Antiviral Research, 2025)
